From patent US20020016279A1, “Enzymatic oxidation composition and process” (Unilever Home & Personal Care USA, Division of Conopco, Inc., priority 2000, published 2002)
Structures can show the parent of a compound that is named as a salt.

Test: Stain bleach performance of the peroxidase/enhancer system on tomato stains (wash test, no hydrogen peroxide added)
Protocol: The potential of the enzymatic bleach system, consisting of a peroxidase enzyme and an enhancer, to bleach stains was assessed by washing cotton swatches soiled with tomato stains. The experiments were performed in 1 l beakers, to which 800 ml of wash solution were added. […]
The swatches were washed during 30 minutes at 30° C. After the wash, the swatches were tumble-dried and the reflectance spectra were measured using a Minolta spectrometer. The color differences between the swatch before and after the wash data were expressed in the CIELAB L*a*b* color space. In this color space, L* indicates lightness and a* and b* are the chromaticity coordinates. Color differences between two swatches are expressed as ΔE, which is calculated from the following equation:
ΔE={square root}{square root over (ΔL^2+Δa^2+Δb^2)}

[1] = cotton swatches soiled with tomato stains, enhancer 250 μM, peroxidase from Arthromyces ramosus 50 μg/l, wash solution 2 g/l, pH 10.5, 30 minutes at 30° C, no enhancer: 6.5

SMILES	ΔE [1]	ΔE (Example 2, enhancer 50 μM, peroxidase 5 mg/l, tomato stains, peroxidase without enhancer 7.7)	ΔE (Example 2, enhancer 100 μM, peroxidase 5 mg/l, tomato stains, peroxidase without enhancer 7.7)	ΔE (Example 2, enhancer 200 μM, peroxidase 5 mg/l, tomato stains, peroxidase without enhancer 7.7)	ΔE (Example 2, enhancer 200 μM, peroxidase None, tomato stains, None/None control 7.5)
COC(=O)C(=O)NNc1ccccc1 [Methyl [2-phenyl]hydrazide oxalate]	9.8				
O=C(NNc1ccccc1)c1ccccc1 [2′-phenylbenzohydrazide]	7.4				
CCOC(=O)C(=O)NNc1cccc(Cl)c1 [Ethyl [2-(3-chlorophenyl)]hydrazide oxalate]	7.8				
Nc1ccc(S(=O)(=O)NNC(=O)C(=O)NNc2ccccc2)cc1 [Ethanedioic acid, 2-[(4-aminophenyl)sulfonyl]-hydrazide-2-phenylhydrazide]	8.1	8.3	9.0	9.6	7.4
CCCOC(=O)C(=O)NNc1ccccc1 [Propyl [2-phenyl]hydrazide oxalate]	9.8				
